Measured values: patent US20110124579A1, “SIALIC ACID TO SUPPORT SALIVATION” (NESTEC S.A., priority 2008, published 2011)
“Also recorded” adds a separate entry of the source.

Test system: rats
Experiment: Pilocarpine stimulated salivation (cholinergic neuronal activity) in young adult and aged rats after 3 weeks on diet
Format: in vivo, rat
Method: Young adult (3 months) and aged rats (24 months) were fed a semisynthetic diet containing sialic acid at a concentration of 0.15 g/100 g diet (control) or a semi-synthetic diet additionally supplemented with sialic acid to a final concentration of 0.9 g/100 g diet (Sia).
After 3 weeks on the experimental diet neuronal activity of cholinergic neurons was assessed. To this end rats were injected pilocarpine (IP, 1.5 mg/kg body weight for 24 months rats and 2 mg/kg body weight for 3 months rats). Pilocarpine is a muscarinic agonist acting on cholinergic neurons, which leads to salivation. Thus stimulated saliva collection was timed with a chronometer. After about 7 minutes collection was stopped.

**Q.** Which “stimulated salivation / neuronal activity of cholinergic neurons (stimulated saliva production per time)” value (aged rats (24 months), diet supplemented with sialic acid to 0.9 g/100 g diet vs control 0.15 g/100 g, 3 weeks, pilocarpine IP 1.5 mg/kg, 1.5 mg/kg) does the source give for CC(=O)N[C@H]1[C@H]([C@H](O)[C@H](O)CO)OC(O)(C(=O)O)C[C@@H]1O (some centres unmarked) [sialic acid, N-acetylneuraminic acid] here?
**A.** increased stimulated salivation equal to the salivation found in young animals; also recorded: significantly increased neuronal activity; also recorded: reached similar stimulated salivation values as the young animals; also recorded: proper salivation was re-established in aged animals

**Q.** And the “Pilocarpine stimulated salivation, aged vs young adult rats” value (young adult (3 m) and old age (24 m) rats, NeuAc enriched diet vs control diet for 3 weeks, FIG. 2, N=8-10)?
**A.** increased stimulated salivation in aged rats much more efficiently than in young adult rats
